Data: patent publication US20240409585A1, “MACROCYCLIC IMMUNOMODULATORS” (priority 2021, published 2024)
Bridge positions count the residues as written; N and C are the ends. Square brackets hold non-standard residues; d marks the D form. Peptide text beside a SMILES is read from it. * marks the point of attachment. ξ: configuration not given here. Phe(4-COOH) = N[C@@H](Cc1ccc(C(=O)O)cc1)C(=O)O; Bip = N[C@@H](Cc1ccc(-c2ccccc2)cc1)C(=O)O; Phe(3-Me) = Cc1cccc(C[C@H](N)C(=O)O)c1; Phe(4-F) = N[C@@H](Cc1ccc(F)cc1)C(=O)O; Val(3-OH) = CC(C)(O)[C@H](N)C(=O)O; 4Pal = N[C@@H](Cc1ccncc1)C(=O)O; Cha = N[C@@H](CC1CCCCC1)C(=O)O; Ile(3ξ) = CCC(C)[C@H](N)C(=O)O; AllylGly = C=CC[C@H](N)C(=O)O; Thr(3ξ) = CC(O)[C@H](N)C(=O)O; Carboxymethyl = O=C(O)C*; NMeA = CN[C@@H](C)C(=O)O; Orn = NCCC[C@H](N)C(=O)O; Pra = C#CC[C@H](N)C(=O)O; Dab = NCC[C@H](N)C(=O)O; Dap = NC[C@H](N)C(=O)O; Aib = CC(C)(N)C(=O)O; ξC = NC(CS)C(=O)O

The molecules below were run against T1, PE-labeled human PD-L1-Ig binding to Jurkat cell line over-expressing human PD-1 (Jurkat-PD-1) (Homo sapiens, UniProt Q15116) (assay: Jurkat-PD-1 Cell Binding High-Content Screening Assay (CBA): Method 1). Details: Jurkat-hPD-1 cells, PE-labeled PD-L1-Ig 20 nM final; read-out: Jurkat HPDL1 PD1 IC50 (uM) (Method 1).
T1 construct: expressed in transfected cells; host or cells: Jurkat
T1 sequence (Q15116 25-288): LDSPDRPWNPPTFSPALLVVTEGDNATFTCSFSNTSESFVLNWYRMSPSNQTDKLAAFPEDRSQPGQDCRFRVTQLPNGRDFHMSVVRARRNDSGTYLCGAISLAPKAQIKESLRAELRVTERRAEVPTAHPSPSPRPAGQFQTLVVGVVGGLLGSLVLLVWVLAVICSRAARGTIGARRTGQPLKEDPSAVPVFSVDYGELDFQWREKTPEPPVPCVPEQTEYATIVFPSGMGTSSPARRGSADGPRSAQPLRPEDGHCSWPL
Work on `Cc1cccc(C[C@@H]2NC(=O)[C@H](CC(=O)O)NC(=O)[C@H](Cc3ccc(C(=O)O)cc3)NC(=O)[C@H](Cc3ccc(F)cc3)NC(=O)CSC[C@@H](C(=O)N[C@@H](CCN)C(N)=O)NC(=O)[C@H](CCC(=O)O)NC(=O)[C@H](C(C)C)NC(=O)[C@H](CC3CCCCC3)NC(=O)[C@H](CCN)NC(=O)[C@@H](CC(C)C)NC(=O)[C@H](C)N(C)C(=O)[C@H](Cc3ccc(C(=O)O)cc3)NC(=O)[C@H](Cc3ccc(-c4ccccc4)cc3)NC(=O)[C@H](Cc3ccc(C(=O)O)cc3)NC2=O)c1` [Compound 2208] ({CH2CO}-[Phe(4-F)][Phe(4-COOH)]D[Phe(3-Me)][Phe(4-COOH)][Bip][Phe(4-COOH)][NMeA][dL][Dab][Cha]VEC[Dab]-NH2; thioether N-14) yielded an IC50 of 0.01 µM. `Cc1cccc(C[C@@H]2NC(=O)[C@H](CC(=O)O)NC(=O)[C@H](Cc3ccc(C(=O)O)cc3)NC(=O)[C@H](Cc3ccc(OCC(=O)O)cc3)NC(=O)CSC[C@@H](C(N)=O)NC(=O)[C@H]([C@@H](C)O)NC(=O)[C@H](C(C)C)NC(=O)[C@H](CC3CCCCC3)NC(=O)[C@H](CC(N)=O)NC(=O)[C@@H](CC(C)C)NC(=O)[C@H](C)N(C)C(=O)[C@H](C(C)C)NC(=O)[C@H](Cc3ccc(-c4ccccc4)cc3)NC(=O)[C@H](CC(C)C)NC2=O)c1` [Compound 1683] ({CH2CO}-Y(Carboxymethyl)[Phe(4-COOH)]D[Phe(3-Me)]L[Bip]V[NMeA][dL]N[Cha]VTC-NH2; thioether N-14) showed an IC50 of 0.03 µM. For `CC[C@H](C)[C@@H]1NC(=O)[C@H](Cc2ccc(-c3ccccc3)cc2)NC(=O)[C@H](C(C)(C)O)NC(=O)[C@H](Cc2cccc(C)c2)NC(=O)[C@H](CC(=O)O)NC(=O)[C@H](Cc2ccc(O)cc2)NC(=O)[C@H](CC(N)=O)NC(=O)CSC[C@@H](C(=O)N[C@H](C)C(N)=O)NC(=O)[C@H](CCC(=O)O)NC(=O)[C@H](C(C)(C)O)NC(=O)[C@H](CC2CCCCC2)NC(=O)[C@H](CCN)NC(=O)[C@@H](CC(C)C)NC(=O)[C@H](C)N(C)C1=O` [Compound 1700] ({CH2CO}-NYD[Phe(3-Me)][Val(3-OH)][Bip]I[NMeA][dL][Dab][Cha][Val(3-OH)]EC[dA]-NH2; thioether N-14), the IC50 was 0.18 µM. For `CC(C)C[C@@H]1NC(=O)[C@H](CCN)NC(=O)[C@@H](CC(C)C)NC(=O)[C@H](C)N(C)C(=O)[C@H](CCCN)NC(=O)[C@H](Cc2ccc(-c3ccccc3)cc2)NC(=O)[C@H](C(C)C)NC(=O)[C@H](Cc2c[nH]c3ccccc23)NC(=O)[C@H](CC(=O)O)NC(=O)[C@H](Cc2ccc(O)cc2)NC(=O)[C@H](CC(N)=O)NC(=O)CSC[C@@H](C(=O)N[C@@H](C)C(N)=O)NC(=O)[C@H]([C@@H](C)O)NC(=O)[C@H](C(C)C)NC1=O` [Compound 1266] ({CH2CO}-NYDWV[Bip][Orn][NMeA][dL][Dab]LVTCA-NH2; thioether N-14), the IC50 was 0.03 µM. `CC(C)C[C@@H]1NC(=O)[C@H](Cc2c[nH]c3ccccc23)NC(=O)[C@H](CC(=O)O)NC(=O)[C@H](Cc2ccc(O)cc2)NC(=O)[C@H](Cc2ccccc2)NC(=O)CSC[C@@H](C(=O)N[C@@H](C)C(N)=O)NC(=O)[C@H]([C@@H](C)O)NC(=O)[C@H](CN)NC(=O)[C@H](CC(C)C)NC(=O)[C@H](CC(N)=O)NC(=O)[C@@H](C)NC(=O)[C@H](C)N(C)C(=O)[C@H](C(C)C)NC(=O)[C@H](Cc2ccc(-c3ccccc3)cc2)NC1=O` [Compound 1535] ({CH2CO}-FYDWL[Bip]V[NMeA][dA]NL[Dap]TCA-NH2; thioether N-14) was tested, and the IC50 was 0.36 µM. With `CC(C)C[C@H]1NC(=O)[C@H](C)N(C)C(=O)[C@H](CCC(=O)O)NC(=O)[C@H](Cc2ccc(-c3ccccc3)cc2)NC(=O)[C@H](C(C)C)NC(=O)[C@H](Cc2c[nH]c3ccccc23)NC(=O)[C@H](CC(=O)O)NC(=O)[C@H](Cc2ccc(OCC(=O)O)cc2)NC(=O)[C@H](CC(N)=O)NC(=O)CSC[C@@H](C(=O)NCC(N)=O)NC(=O)[C@H](C(C)O)NC(=O)[C@H](C(C)C)NC(=O)[C@H](CC2CCCCC2)NC(=O)[C@H](CCN)NC1=O` (stereo partly drawn) [Compound 2085] ({CH2CO}-NY(Carboxymethyl)DWV[Bip]E[NMeA][dL][Dab][Cha]V[Thr(3ξ)]CG-NH2; thioether N-14) the IC50 was 0.01 µM. Work on `C#CC[C@H](NC(=O)[C@@H](C)NC(=O)[C@@H]1CSCC(=O)N[C@@H](Cc2c[nH]cn2)C(=O)N[C@@H](Cc2ccc(OCC(=O)O)cc2)C(=O)N[C@@H](CC(=O)O)C(=O)N[C@@H](Cc2c[nH]c3ccccc23)C(=O)N[C@@H](C(C)C)C(=O)N[C@@H](Cc2ccc(-c3ccccc3)cc2)C(=O)N[C@@H](C(C)C)C(=O)N(C)[C@@H](C)C(=O)N[C@H](CC(C)C)C(=O)N[C@@H](CCN)C(=O)N[C@@H](CC2CCCCC2)C(=O)N[C@@H](C(C)(C)O)C(=O)N[C@@H](CO)C(=O)N1)C(=O)O` [Compound 1943] ({CH2CO}-HY(Carboxymethyl)DWV[Bip]V[NMeA][dL][Dab][Cha][Val(3-OH)]SC[dA][Pra]-OH; thioether N-14) yielded an IC50 of 0.01 µM. `C=CC[C@H](NC(=O)C1CSCC(=O)N[C@@H](Cc2ccc(OCC(=O)O)cc2)C(=O)N[C@@H](CC=C)C(=O)N[C@@H](CC(=O)O)C(=O)N[C@@H](Cc2cccc(C)c2)C(=O)N[C@@H](CC(C)C)C(=O)N[C@@H](Cc2ccc(-c3ccccc3)cc2)C(=O)N[C@@H](C(C)C)C(=O)N(C)[C@@H](C)C(=O)N[C@H](CC(C)C)C(=O)N[C@@H](CC(N)=O)C(=O)N[C@@H](CC(C)C)C(=O)N[C@@H](C(C)C)C(=O)N[C@@H](CO)C(=O)N1)C(N)=O` (stereo partly drawn) [Compound 1884] ({CH2CO}-Y(Carboxymethyl)[AllylGly]D[Phe(3-Me)]L[Bip]V[NMeA][dL]NLVS[ξC][AllylGly]-NH2; thioether N-14) gave an IC50 of 0.03 µM. `CCC(C)[C@@H]1NC(=O)[C@H](Cc2ccc(-c3ccccc3)cc2)NC(=O)[C@H](CC(C)C)NC(=O)[C@H](Cc2c[nH]c3ccccc23)NC(=O)[C@H](CC(=O)O)NC(=O)[C@H](Cc2ccc(C(=O)O)cc2)NC(=O)[C@H](Cc2ccc(OCC(=O)O)cc2)NC(=O)CSC[C@@H](C(=O)N[C@@H](CO)C(N)=O)NC(=O)[C@H](CCC(N)=O)NC(=O)[C@H](C(C)C)NC(=O)[C@H](CC2CCCCC2)NC(=O)[C@H](CCN)NC(=O)[C@@H](CC(C)C)NC(=O)[C@H](C)N(C)C1=O` (stereo partly drawn) [Compound 1931] ({CH2CO}-Y(Carboxymethyl)[Phe(4-COOH)]DWL[Bip][Ile(3ξ)][NMeA][dL][Dab][Cha]VQCS-NH2; thioether N-14) gave an IC50 of 0.02 µM. Work on `CC(C)C[C@@H]1NC(=O)[C@H](CCN)NC(=O)[C@@H](CC(C)C)NC(=O)[C@H](C)N(C)C(=O)[C@H](CCCNC(=N)N)NC(=O)[C@H](Cc2ccc(-c3ccccc3)cc2)NC(=O)[C@H](C(C)C)NC(=O)[C@H](Cc2c[nH]c3ccccc23)NC(=O)[C@H](CC(=O)O)NC(=O)[C@H](Cc2ccc(C(=O)O)cc2)NC(=O)[C@H](Cc2cnc[nH]2)NC(=O)CSC[C@@H](C(=O)N[C@@H](C)C(N)=O)NC(=O)[C@H]([C@@H](C)O)NC(=O)[C@H](C(C)C)NC1=O` [Compound 1151] ({CH2CO}-H[Phe(4-COOH)]DWV[Bip]R[NMeA][dL][Dab]LVTCA-NH2; thioether N-14) yielded an IC50 of 0.04 µM. In the case of `Cc1cccc(C[C@@H]2NC(=O)[C@H](CC(=O)O)NC(=O)[C@H](Cc3ccc(OCC(=O)O)cc3)NC(=O)[C@H](Cc3ccc(OCC(=O)O)cc3)NC(=O)CSC[C@@H](C(N)=O)NC(=O)[C@H](CCC(N)=O)NC(=O)[C@H](C(C)C)NC(=O)[C@H](CC3CCCCC3)NC(=O)[C@H](CCN)NC(=O)[C@@H](CC(C)C)NC(=O)[C@H](C)N(C)C(=O)[C@H](Cc3ccc(OCC(=O)O)cc3)NC(=O)[C@H](Cc3ccc(-c4ccccc4)cc3)NC(=O)[C@H](Cc3ccc(OCC(=O)O)cc3)NC2=O)c1` [Compound 1655] ({CH2CO}-Y(Carboxymethyl)Y(Carboxymethyl)D[Phe(3-Me)]Y(Carboxymethyl)[Bip]Y(Carboxymethyl)[NMeA][dL][Dab][Cha]VQC-NH2; thioether N-14), the IC50 is reported as 0.03 µM. With `Cc1cccc(C[C@@H]2NC(=O)[C@H](CC(=O)O)NC(=O)[C@H](Cc3ccc(OCC(=O)O)cc3)NC(=O)[C@H](Cc3ccncc3)NC(=O)CSC[C@@H](C(=O)NCC(N)=O)NC(=O)[C@H](CO)NC(=O)[C@H](C(C)C)NC(=O)[C@H](CC(C)C)NC(=O)[C@H](CC(N)=O)NC(=O)[C@@H](CC(C)C)NC(=O)[C@H](C)N(C)C(=O)[C@H](C(C)C)NC(=O)[C@H](Cc3ccc(-c4ccccc4)cc3)NC(=O)[C@H](CC(C)C)NC2=O)c1` [Compound 1557] ({CH2CO}-[4Pal]Y(Carboxymethyl)D[Phe(3-Me)]L[Bip]V[NMeA][dL]NLVSCG-NH2; thioether N-14) the IC50 was 0.01 µM. `CC(C)C[C@@H]1NC(=O)[C@H](Cc2c[nH]c3ccccc23)NC(=O)[C@H](CC(=O)O)NC(=O)[C@H](Cc2ccc(O)cc2)NC(=O)[C@H](Cc2ccccc2)NC(=O)CSC[C@@H](C(=O)NCC(N)=O)NC(=O)[C@H](CO)NC(=O)[C@H](C(C)C)NC(=O)[C@H](CC(C)C)NC(=O)[C@H](CC(N)=O)NC(=O)C(C)(C)NC(=O)[C@H](C)N(C)C(=O)[C@H](C(C)C)NC(=O)[C@H](Cc2ccc(-c3ccccc3)cc2)NC1=O` [Compound 1818] ({CH2CO}-FYDWL[Bip]V[NMeA][Aib]NLVSCG-NH2; thioether N-14) showed an IC50 of 0.42 µM. `CCC(C)[C@@H]1NC(=O)[C@H](Cc2ccc(-c3ccccc3)cc2)NC(=O)[C@H](C(C)C)NC(=O)[C@H](Cc2cccc(C)c2)NC(=O)[C@H](CC(=O)O)NC(=O)[C@H](Cc2ccc(OCC(=O)O)cc2)NC(=O)[C@H](Cc2ccncc2)NC(=O)CSC[C@@H](C(=O)N[C@@H](CCCN)C(N)=O)NC(=O)[C@H](C(C)O)NC(=O)[C@H](C(C)(C)O)NC(=O)[C@H](CC2CCCCC2)NC(=O)[C@H](CCN)NC(=O)[C@@H](CC(C)C)NC(=O)[C@H](C)N(C)C1=O` (stereo partly drawn) [Compound 2145] ({CH2CO}-[4Pal]Y(Carboxymethyl)D[Phe(3-Me)]V[Bip][Ile(3ξ)][NMeA][dL][Dab][Cha][Val(3-OH)][Thr(3ξ)]C[Orn]-NH2; thioether N-14) was tested, and the IC50 was 0.01 µM. Work on `CC(C)C[C@@H]1NC(=O)[C@H](CCN)NC(=O)[C@@H](CC(C)C)NC(=O)[C@H](C)N(C)C(=O)[C@H](CCC(N)=O)NC(=O)[C@H](Cc2ccc(-c3ccccc3)cc2)NC(=O)[C@H](C(C)C)NC(=O)[C@H](Cc2c[nH]c3ccccc23)NC(=O)[C@H](CC(=O)O)NC(=O)[C@H](Cc2ccc(O)cc2)NC(=O)[C@H](CC(N)=O)NC(=O)CSC[C@@H](C(=O)N[C@@H](C)C(N)=O)NC(=O)[C@H]([C@@H](C)O)NC(=O)[C@H](C(C)C)NC1=O` [Compound 1301] ({CH2CO}-NYDWV[Bip]Q[NMeA][dL][Dab]LVTCA-NH2; thioether N-14) yielded an IC50 of 0.06 µM.
